ChEMBL document CHEMBL1122038, “Peptide sweeteners. 5. Side-chain homologues relating zwitterionic and trifluoroacetylated amino acid anilide and dipeptide sweeteners” (J Med Chem, 1982)
Structures can show the parent of a compound that is named as a salt. Peptide text beside a SMILES is read from it. * marks the point of attachment. Tfa = O=C(C(F)(F)F)*

experiment: Compound was evaluated for the potency of sweet taste when sweetness of sucrose is taken as 1 on a weight basis; Not sweet; format: functional

| Structure (SMILES) | Taste |
| --- | --- |
| N#Cc1ccc(NC(=O)C(N)C(=O)O)cc1 (centres undefined) | 0 |
| N#Cc1ccc(NC(=O)C(NC(=O)C(F)(F)F)C(=O)O)cc1 (centres undefined) | 0 |
| N#Cc1ccc(NC(=O)C(CCC(=O)O)NC(=O)C(F)(F)F)cc1 (centres undefined) | 0 |
| N#Cc1ccc(NC(=O)C(CC(=O)O)NC(=O)C(F)(F)F)cc1 (centres undefined) | 0 |
| N#Cc1ccc(NC(=O)C(CCCC(=O)O)NC(=O)C(F)(F)F)cc1 (centres undefined) | 0 |
| COC(=O)[C@H](Cc1ccccc1)NC(=O)[C@@H](N)CCC(=O)O | 0 |
| N#Cc1ccc(NC(=O)CCC(NC(=O)C(F)(F)F)C(=O)O)cc1 (stereo in doubt; 9) | 0 |
| COC(=O)C(Cc1ccccc1)NC(=O)C(NC(=O)C(F)(F)F)C(=O)O (centres undefined) | 0 |
| N#Cc1ccc(NC(=O)C[C@@H](NC(=O)C(F)(F)F)C(=O)O)cc1 | 0 |
| COC(=O)C(Cc1ccccc1)NC(=O)C(CCC(=O)O)NC(=O)C(F)(F)F (centres undefined) | 0 |
| N#Cc1ccc(NC(=O)CCC(NC(=O)C(F)(F)F)C(=O)O)cc1 (stereo in doubt; 11) | 0 |
| N#Cc1ccc(NC(=O)CC(NC(=O)C(F)(F)F)C(=O)O)cc1 (centres undefined) | 0 |

experiment: Compound was evaluated for the potency of sweet taste when sweetness of sucrose is taken as 1 on a weight basis; 2500-3000

| Taste | Structure (SMILES) |
| --- | --- |
| 2500 | N#Cc1ccc(NC(=O)C(CCC(=O)O)NC(=O)C(F)(F)F)cc1 (centres undefined) |
| 2500 | N#Cc1ccc(NC(=O)[C@H](CC(=O)O)NC(=O)C(F)(F)F)cc1 |

experiment: Compound was evaluated for the potency of sweet taste when sweetness of sucrose is taken as 1 on a weight basis; 15-30

| Taste | Structure (SMILES) |
| --- | --- |
| 15 | N#Cc1ccc(NC(=O)C(N)CCC(=O)O)cc1 (centres undefined) |
| 15 | N#Cc1ccc(NC(=O)C(N)CC(=O)O)cc1 (centres undefined) |

experiment: Compound was evaluated for the potency of sweet taste when sweetness of sucrose is taken as 1 on a weight basis; 150-200

| Taste | Structure (SMILES) |
| --- | --- |
| 150 | COC(=O)[C@H](Cc1ccccc1)NC(=O)[C@@H](N)CC(=O)O |
| 150 | COC(=O)[C@H](Cc1ccccc1)NC(=O)C(N)C(=O)O (some centres undefined) |
| 150 | COC(=O)C(Cc1ccccc1)NC(=O)C(CC(=O)O)NC(=O)C(F)(F)F (stereo not drawn) (Tfa-Asp-Phe-OMe; configuration not given here) |
